What all share (assay): inhibition of tumour cell growth, NCI panel, 48 h
The test system of assay [1] is OVCAR-8 ovarian.
Assay [2] deals with SW-620 colon.
Assay [3] deals with NCI/ADR-RES ovarian.
Assay [4] relates to HL-60(TB) leukemia.
Assay [5] concerns SK-MEL-2 melanoma.
Assay [6] has as its system A549 NSCLC.
For assay [7], the system named is A498 renal.
For assay [8], the system named is BT-549 breast.
Assay [9] has as its system CCRF-CEM leukemia.
Assay [10] deals with UACC-257 melanoma.
Assay [11] concerns T-47D breast.

Each structure is given as a SMILES string. Values joined by “and” are separate entries in the source; they are usually repeats but may differ in a detail not shown here. Identical values can stand only once.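 Cells were grown in 96-well plates and exposed to each compound for 48 hours at five concentrations; endpoints were interpolated linearly between bracketing concentrations, or set to the highest concentration if not reached. The concentration for 50% growth inhibition is given as GI50. TGI denotes the concentration required for complete inhibition of growth.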

Consider `O=C(O)CN1CCN(CC(=O)O)CCN(CC(=O)O)CCN(CC(=O)O)CC1`, for which the TGI in assay [1], in [2], in assay [3], in assay [4], in assay [5] and in assay [6] was more than 100 µM in each case. For the same compound, the TGI in [7], in assay [8], in assay [9], in assay [10] and in assay [11] was more than 100 µM each time.

For `CC(=O)OC1COC(n2c(N)c(C#N)c(C)c(C#N)c2=S)C(OC(C)=O)C1OC(C)=O` (centres undefined), the TGI in assay [1], in assay [2], in assay [3], in assay [4], in [5] and in assay [6] was more than 100 µM throughout. Moreover, the TGI in [7], in [8], in assay [9], in [10] and in assay [11] was more than 100 µM in each case. In addition, the GI50 in assay [4] is > 100 µM and 36.6 µM; in assay [5], > 100 µM and 26 µM; in assay [9], > 100 µM and 32 µM.

`CCN(CC)CCS(=O)c1c2cc(OC)ccc2nc2ccc(OC)cc12` (centres undefined): the TGI in [1] is 21 µM; in assay [2], more than 21.9 µM; in assay [3], 52.6 µM; in assay [4] it was more than 100 µM; in assay [5] it was 40.3 µM; in assay [6], 55.3 µM. For the same compound, the TGI is 33.1 µM in assay [7]; 31.2 µM in assay [8]; more than 25.6 µM in assay [9]; 17.6 µM in assay [10]; 4.04 µM in assay [11].

In the case of `O=S1(=O)CCN(Cc2ccccc2)/C1=N\S(=O)(=O)c1ccc(Cl)cc1`, the TGI was 32.9 µM in assay [1]; 36.7 µM in assay [2]; 35.8 µM in [3]; 65.9 µM in assay [4]; 53.3 µM in [5]; more than 100 µM in assay [6]. In addition, the TGI amounted to 73.5 µM in assay [7]; 31.1 µM in assay [8]; 85.5 µM in [9]; 35.7 µM in [10]; 39.5 µM in assay [11].

On to `CC1(C)OCC(C2OC(N3O[C@H](CI)C[C@@H]3c3ccccc3)C3OC(C)(C)OC23)O1` (some centres undefined), for which the TGI in [2], in assay [3], in assay [4], in assay [5], in [6] and in assay [7] was more than 100 µM each time. In addition, the TGI in assay [8], in [9], in assay [10] and in [11] was more than 100 µM throughout.

As for `CC(=O)CCC[C@@H](C)[C@@H]1O[C@H]([C@@]2(C)CCC(=O)O2)C[C@H]2C(CSc3ccccc3)C(=O)O[C@@H]12` (some centres undefined), the TGI in [1] is more than 50.8 µM; in [2], 28.8 µM; in assay [3] it was 43.7 µM; in [4], 12.8 µM; in [5], 40.6 µM; in [6], 44.1 µM. The TGI is more than 88.9 µM in [7]; 27.5 µM in assay [8]; 24.9 µM in assay [9]; 28.1 µM in assay [10]; 38 µM in assay [11].

`CCOC(=O)c1nc2ccc(C(F)(F)F)cc2nc1Oc1ccc(F)cc1`: the TGI in [1], in assay [2], in assay [3], in [4], in [5] and in [7] was more than 100 µM in each case. The TGI in [8], in [9], in assay [10] and in assay [11] was more than 100 µM throughout.

For `CCOC(=O)c1c(NC(=O)Nc2ccccc2)c(C(N)=O)c2n1CCCCC2`, the TGI in assay [1], in assay [2], in [3], in assay [4], in assay [5] and in [7] was more than 100 µM in each case. Besides, the TGI in assay [8], in assay [9], in [10] and in [11] was more than 100 µM each time.

As for `COc1cc2cc(C(=O)N3CC(CCl)c4ccc(NCCN)cc43)[nH]c2c(OC)c1OC` (centres undefined), the TGI was found to be 2.77 µM in [1]; 1.54 µM in [3]; 0.226 µM in assay [4]; 0.408 µM in assay [5]; 12.5 µM in [6]; 0.339 µM in [7]. Besides, the TGI was 1.94 µM in assay [8], 2.24 µM in assay [9], 0.637 µM in assay [10] and 5.19 µM in assay [11].

For the compound `N=C1C(=N)c2ccccc2-c2ccccc21`, the TGI in [3] stood at 5 µM; in assay [4] it was 0.658 µM; in assay [5], 2.97 µM; in [6], 3.66 µM; in assay [7], 4.13 µM; in assay [8] it was 2.23 µM. Besides, the TGI was more than 20 µM in assay [9], 1.46 µM in assay [10] and 1.57 µM in [11].

On to `NC1=NC(OCC2(CO)CCC2)C=C(NCC2(CO)CCC2)N1` (centres undefined), for which the TGI in assay [1], in [2], in [3], in [4], in assay [5] and in assay [6] was more than 100 µM each time. In addition, the TGI in [7], in assay [8], in assay [9], in [10] and in [11] was more than 100 µM throughout.

With `C=C1C(=O)C23CC1C[C@H](OC(C)=O)C2C1(C)C(OC(C)=O)C[C@H](O)C(C)(C)[C@H]1C(O)[C@@H]3OC(C)=O` (some centres undefined), the TGI is 22 µM in assay [1]; 6.14 µM in assay [2]; more than 100 µM in assay [3]; 6.11 µM in assay [4]; 29.7 µM in assay [5]; 48.8 µM in assay [6]. Also, the TGI in assay [7] was 28.4 µM; in [8], 13.5 µM; in assay [9], 8.25 µM; in assay [10] it was 24.5 µM; in assay [11], 24.8 µM.

These data come from PubChem BioAssay (NCI).
